Assay [1] concerns the target T1, SARS-CoV-2 NSP3 Mac1 (Severe acute respiratory syndrome coronavirus 2, UniProt P0DTD1). As to the kind of experiment: biochemical. The class given is binding. As to conditions: for IC50: read-out: IC50; for Ki: read-out: Ki***.
The target of assay [2] is T1, SARS-CoV-2 NSP3 Mac1. The class given is binding. The note with it: for 1-BDC (PanDDA): PanDDA event map, 1 minus background density correction; for 1-BDC (PanDDA) / Refined occupancy: crystal soaking of Mac1; for Refined occupancy: ligand occupancy after refinement (phenix.refine).
The mark [3] stands for this setting: Ki estimation from HTRF-derived IC50, Cheng-Prusoff, peptide 400nM, Kd 2.68µM.
Setting [4] is: true hit = binding in crystallographic soaking or the HTRF-based binding assay.
[5] abbreviates: HTRF ADPr-peptide displacement from SARS-CoV-2 Mac1.
The mark [6] stands for this setting: PanDDA 1-BDC of the event, compound stock 100 mM, Echo dispense volume 40 nl.
Setting [7] is: crystal soak, compound stock 100 mM, Echo dispense volume 40 nl.
The mark [8] stands for this setting: ligand modeled in structure, compound stock 100 mM, Echo dispense volume 40 nl.
Where [9] appears, read: PanDDA 1-BDC of the event, compound stock 100 mM, Echo dispense volume 80 nl.
The mark [10] stands for this setting: PanDDA event map 1-BDC, crystal soak, Compound_concentration 100 mM, PanDDA run dmso_34 or nohits_35 per dataset.
Setting [11] is: crystal soak, Compound_concentration 100 mM, Echo dispense 40 nl, PanDDA run dmso_34 or nohits_35 per dataset.
Setting [12] is: crystal soak, compound stock 100 mM, Echo dispense volume 80 nl.
The mark [13] stands for this setting: ligand modeled in structure, compound stock 100 mM, Echo dispense volume 80 nl.

Values joined by “and” are separate entries in the source; they are usually repeats but may differ in a detail not shown here. Equal values may be shown once. Read-outs that look alike come from different tables or passages of the source.

For the compound `O=C(O)CC1CCN(c2ncnc3[nH]c4ccccc4c23)CCC1(F)F` (stereo not shown) [Z6423], the half-inhibitory concentration (IC50) – broadly, the concentration needed to halve the response being measured – on SARS-CoV-2 NSP3 Mac1 [1] (HTRF) is 143 µM. Also, the Ki (as a rule, the equilibrium dissociation constant of an inhibitor or competing ligand from its target) on SARS-CoV-2 NSP3 Mac1 [1] (setting [3]) was 124 µM. For the same compound, the “HIT*” value on SARS-CoV-2 NSP3 Mac1 [2] (setting [4]) was “Y”.
The matching figures for `O=C(O)C(F)(F)F.O=C(O)C1CN(c2ncnc3[nH]c4ccccc4c23)CC12CCC2` (stereo not shown) [Z4706]: 15.4 µM, 13.4 µM and “Y”.
For the compound `CS(=O)(=O)NC(=O)C1CN(c2ncnc3[nH]c4cc(F)ccc4c23)CCO1` (stereo not shown) [LL114_0019], the half-maximal inhibitory concentration (IC50) at SARS-CoV-2 NSP3 Mac1 [1] (setting [5]) is 12 µM. Further, the IC50 on SARS-CoV-2 NSP3 Mac1 [1] (HTRF) is 12.3 µM. Besides, the Ki on SARS-CoV-2 NSP3 Mac1 [1] (setting [3]) is 10.7 µM. This compound showed a 1-BDC on SARS-CoV-2 NSP3 Mac1 [2] (setting [6]) of 0.1. Moreover, at SARS-CoV-2 NSP3 Mac1 [2], the “1-BDC (PanDDA)” value stood at 0.1 and the Refined occupancy is 20. Moreover, at SARS-CoV-2 NSP3 Mac1 [2] (setting [7]), the “PanDDA hit?” value is recorded as “TRUE”. For the same compound, on SARS-CoV-2 NSP3 Mac1 [2] (setting [8]), the “Modeled?” value is “TRUE”. Further, on SARS-CoV-2 NSP3 Mac1 [2] (setting [4]), the “HIT*” value is given as “Y”.
Consider `Nc1ccc(C(=O)OC2c3ccccc3CC2C(=O)O)c(O)c1` (stereo not shown) [Z8507], for which the IC50 on SARS-CoV-2 NSP3 Mac1 [1] (setting [5]) turned out to be 144 µM. For the same compound, the Ki at SARS-CoV-2 NSP3 Mac1 [1] stood at 125 µM. Besides, the 1-BDC at SARS-CoV-2 NSP3 Mac1 [2] (PanDDA event map background density correction, crystal soak, compound concentration 100 mM) was 0.37. For the same compound, on SARS-CoV-2 NSP3 Mac1 [2], the “1-BDC (PanDDA)” value is 0.37 and the Refined occupancy is reported as 74. The “Modeled?” value at SARS-CoV-2 NSP3 Mac1 [2] (ligand modeled in the crystal structure, crystal soak, compound concentration 100 mM) is listed as “TRUE”. Moreover, the “HIT*” value on SARS-CoV-2 NSP3 Mac1 [2] (overall hit call: binding in crystallographic soaking or the HTRF-based binding assay) is reported as “Y”.
Consider `CS(=O)(=O)NC(=O)C1(F)CN(c2ncnc3[nH]c4cc(F)ccc4c23)CC12CCC2` (stereo not shown) [LL123_0036], for which, on SARS-CoV-2 NSP3 Mac1 [1] (setting [5]), the IC50 is 17.1 µM and 17 µM. Besides, the Ki on SARS-CoV-2 NSP3 Mac1 [1] (setting [3]) was 14.8 µM. Further, the 1-BDC on SARS-CoV-2 NSP3 Mac1 [2] (setting [9]) stood at 0.18; at SARS-CoV-2 NSP3 Mac1 [2] (setting [10]) it was 0.2. On SARS-CoV-2 NSP3 Mac1 [2], the “1-BDC (PanDDA)” value turned out to be 0.18. The “PanDDA hit?” value on SARS-CoV-2 NSP3 Mac1 [2] (setting [11]) and at SARS-CoV-2 NSP3 Mac1 [2] (setting [12]) was “TRUE” throughout. The “Modeled?” value at SARS-CoV-2 NSP3 Mac1 [2] (setting [13]) is “TRUE”. For the same compound, the Refined occupancy on SARS-CoV-2 NSP3 Mac1 [2] is 36. In addition, the “HIT*” value on SARS-CoV-2 NSP3 Mac1 [2] (setting [4]) is “Y”.
Turning to `Nc1cc(NC(=O)NC2CC2)ccc1C(=O)NC1c2cccc(O)c2CC1C(=O)O` (stereo not shown) [Z8539_0059], the IC50 on SARS-CoV-2 NSP3 Mac1 [1] (setting [5]) turned out to be 0.9 µM. The IC50 at SARS-CoV-2 NSP3 Mac1 [1] (HTRF) is 0.8 µM. Moreover, at SARS-CoV-2 NSP3 Mac1 [1] (setting [3]), the inhibition constant Ki is 0.7 µM. At SARS-CoV-2 NSP3 Mac1 [2] (setting [10]), this compound gave a 1-BDC of 0.25. In addition, on SARS-CoV-2 NSP3 Mac1 [2], the “1-BDC (PanDDA)” value is given as 0.25 and the Refined occupancy is given as 50. Also, the “PanDDA hit?” value on SARS-CoV-2 NSP3 Mac1 [2] (setting [11]) is “TRUE”. Also, the “Modeled?” value at SARS-CoV-2 NSP3 Mac1 [2] (ligand modeled in this dataset, crystal soak, Compound_concentration 100 mM) is “TRUE”. Also, the “HIT*” value at SARS-CoV-2 NSP3 Mac1 [2] (setting [4]) is reported as “Y”.
Take `O=C(O)C[C@@H]1CN(c2ncnc3[nH]c4cc(F)ccc4c23)C[C@H](CO)O1` [LL114_0001]: the IC50 was 8 µM at SARS-CoV-2 NSP3 Mac1 [1] (setting [5]) and 8.2 µM on SARS-CoV-2 NSP3 Mac1 [1] (HTRF). At SARS-CoV-2 NSP3 Mac1 [1] (setting [3]), the Ki is 7.1 µM. The values for the 1-BDC at SARS-CoV-2 NSP3 Mac1 [2] (setting [6]) and at SARS-CoV-2 NSP3 Mac1 [2] (setting [10]) were 0.12 and 0.14, respectively. On SARS-CoV-2 NSP3 Mac1 [2], the “1-BDC (PanDDA)” value came to 0.12. In addition, the “PanDDA hit?” value on SARS-CoV-2 NSP3 Mac1 [2] (setting [11]) and on SARS-CoV-2 NSP3 Mac1 [2] (setting [7]) was “TRUE” in each case. The “Modeled?” value on SARS-CoV-2 NSP3 Mac1 [2] (setting [8]) is “TRUE”. For the same compound, at SARS-CoV-2 NSP3 Mac1 [2], the Refined occupancy is given as 24. Further, at SARS-CoV-2 NSP3 Mac1 [2] (setting [4]), the “HIT*” value is “Y”.
As to `O=C(O)CC1CN(c2ncnc3[nH]c4ccccc4c23)CCO1` (stereo not shown) [Z9596], the half-maximal inhibitory concentration (IC50) at SARS-CoV-2 NSP3 Mac1 [1] (HTRF) was found to be 37.1 µM. For the same compound, the Ki at SARS-CoV-2 NSP3 Mac1 [1] (setting [3]) is 32.3 µM. In addition, the “HIT*” value on SARS-CoV-2 NSP3 Mac1 [2] (setting [4]) is “Y”.
With `O=C(O)C1CN(c2ncnc3[nH]c4cc(F)ccc4c23)CCC12CCC2` (stereo not shown) [LL123_0029], the IC50 at SARS-CoV-2 NSP3 Mac1 [1] (setting [5]) was found to be 16 µM. Besides, at SARS-CoV-2 NSP3 Mac1 [1] (HTRF), the IC50 was found to be 15.9 µM. In addition, the Ki at SARS-CoV-2 NSP3 Mac1 [1] (setting [3]) is 13.8 µM. For the same compound, the 1-BDC at SARS-CoV-2 NSP3 Mac1 [2] (setting [9]) came to 0.11. In addition, at SARS-CoV-2 NSP3 Mac1 [2], the “1-BDC (PanDDA)” value is 0.11 and the Refined occupancy is given as 22. In addition, the “PanDDA hit?” value at SARS-CoV-2 NSP3 Mac1 [2] (setting [12]) is given as “TRUE”. The “Modeled?” value at SARS-CoV-2 NSP3 Mac1 [2] (setting [13]) is on record as “TRUE”. The “HIT*” value at SARS-CoV-2 NSP3 Mac1 [2] (setting [4]) is listed as “Y”.

These data come from article PMC9926234, “Iterative computational design and crystallographic screening identifies potent inhibitors targeting the Nsp3 macrodomain of SARS-CoV-2” (Proceedings of the National Academy of Sciences of the …, 2023).
